Measured values as given in ChEMBL document CHEMBL5360542, “Current development of β-carboline derived potential antimalarial scaffolds” (Eur J Med Chem, 2023).

How the values were obtained:
Format in all cases: functional, organism-based
Plasmodium falciparum [1] = assay: Antiplasmodial activity against multi-resistant Plasmodium falciparum W2 infected in erythrocytes assessed as inhibition of parasite growth incubated for 48 hrs by flow cytometry; settings: W2, Erythrocyte
Plasmodium falciparum [2] = assay: Antimalarial activity against chloroquine-resistant Plasmodium falciparum FcB1 assessed as inhibition of parasite growth
Plasmodium falciparum [3] = assay: Antimalarial activity against Plasmodium falciparum 3D7 infected in human A positive erythrocytes assessed as reduction in parasite growth incubated for 24 hrs by [3H]hypoxanthine based scintillation counting analysis; settings: 3D7, Erythrocyte
Plasmodium falciparum [4] = assay: Antimalarial activity against chloroquine-resistant Plasmodium falciparum K1 infected in human A positive erythrocytes assessed as reduction in parasite growth incubated for 24 hrs by [3H]hypoxanthine based scintillation counting analysis; settings: K1, Erythrocyte
Plasmodium falciparum [5] = assay: Antiplasmodial activity against chloroquine-sensitive erythrocyte stage Plasmodium falciparum 3D7 assessed as inhibition of parasite growth incubated for 3 days by ELISA; settings: 3D7, Erythrocyte, 72 h
Plasmodium falciparum [6] = assay: Antiplasmodial activity against chloroquine-resistant erythrocyte stage Plasmodium falciparum Dd2 assessed as inhibition of parasite growth incubated for 3 days by ELISA; settings: 72 h
Plasmodium falciparum [7] = assay: Antimalarial activity against chloroquine-resistant Plasmodium falciparum K1
Plasmodium falciparum [8] = assay: Antimalarial activity against Plasmodium falciparum INDO infected in erythrocytes assessed as inhibition of parasite growth incubated for 48 hrs by SYBR-Green I fluorescence-based assay; settings: Erythrocyte
Plasmodium falciparum [9] = assay: Antimalarial activity against Plasmodium falciparum 3D7 infected in erythrocytes assessed as inhibition of parasite growth incubated for 48 hrs by SYBR-Green I fluorescence-based assay; settings: 3D7, Erythrocyte
Plasmodium falciparum [10] = assay: Antimalarial activity against chloroquine-sensitive Plasmodium falciparum D10 transfected in human type A-positive RBC cells assessed reduction in parasite growth by measuring LDH activity incubated for 72 hrs by spectrophotometric analysis; settings: Plasmodium falciparum, D10, Erythrocyte, 72 h
Plasmodium falciparum [11] = assay: Antimalarial activity against chloroquine-resistant Plasmodium falciparum W2 transfected in human type A-positive RBC cells assessed reduction in parasite growth by measuring LDH activity incubated for 72 hrs by spectrophotometric analysis; settings: Plasmodium falciparum, W2, Erythrocyte, 72 h
Plasmodium falciparum [12] = assay: Antimalarial activity against chloroquine-resistant Plasmodium falciparum K1 assessed as reduction in parasite growth incubated for 72 hrs by ELISA; settings: K1, 72 h
Plasmodium falciparum [13] = assay: Antimalarial activity against chloroquine-sensitive Plasmodium falciparum 3D7 assessed as reduction in parasite growth
Plasmodium falciparum [14] = assay: Antimalarial activity against chloroquine-resistant Plasmodium falciparum K1 assessed as reduction in parasite growth

Work on `COc1ccc(C2NCCc3c2[nH]c2ccccc32)cc1` (configuration not stated) yielded an IC50 (Plasmodium falciparum [1]) of 700 nM.
Work on `COC(=O)c1cc2c([nH]c3ccccc32)c(C(=O)c2c[nH]c3ccccc23)n1` yielded an IC50 (Plasmodium falciparum [2]) of 23300 nM.
`Clc1ccc(C2NCCc3c2[nH]c2ccccc32)cc1` (configuration not stated) was tested, and the IC50 (Plasmodium falciparum [1]) was 4800 nM.
Work on `CCN(CC)CCCNc1nccc2c1[nH]c1ccc(Cl)cc12` yielded an IC50 (Plasmodium falciparum [3]) of 150 nM.
For `CCN(CC)CCCNc1nccc2c1[nH]c1ccc(F)cc12`, the IC50 (Plasmodium falciparum [3]) was 600 nM and the IC50 (Plasmodium falciparum [4]) was 300 nM.
Compound `O=C(O)c1cc2c([nH]c3ccccc32)c(-c2c[nH]c3ccccc23)n1` has an IC50 (Plasmodium falciparum [2]) of over 31000 nM.
With `Brc1ccc(C2NCCc3c2[nH]c2ccccc32)cc1` (configuration not stated) the IC50 (Plasmodium falciparum [1]) was 6900 nM.
`Clc1ccc2[nH]c3c(N4CCC(N5CCCC5)CC4)nccc3c2c1` showed an IC50 (Plasmodium falciparum [3]) of 930 nM and an IC50 (Plasmodium falciparum [4]) of 1030 nM.
For `Clc1ccc2[nH]c3c(N4CCC(N5CCCCC5)CC4)nccc3c2c1`, the IC50 (Plasmodium falciparum [3]) was 10200 nM and the IC50 (Plasmodium falciparum [4]) was 2660 nM.
Work on `CN(C)c1ccc(C2NCCc3c2[nH]c2ccccc32)cc1` (configuration not stated) yielded an IC50 (Plasmodium falciparum [1]) of 3900 nM.
`O=[N+]([O-])c1ccc(C2NCCc3c2[nH]c2ccccc32)cc1` (configuration not stated) showed an IC50 (Plasmodium falciparum [1]) of 1700 nM.
`CCN(CC)C1CCN(c2nccc3c2[nH]c2ccc(Cl)cc23)CC1` was tested, and the IC50 (Plasmodium falciparum [3]) was 1600 nM and the IC50 (Plasmodium falciparum [4]) was 1180 nM.
With `Fc1ccc(C2NCCc3c2[nH]c2ccccc32)cc1` (configuration not stated) the IC50 (Plasmodium falciparum [1]) was 1100 nM.
For `COc1ccc(/C=C/C(=O)NCCn2c3cc(OC)ccc3c3ccnc(C)c32)cc1`, the IC50 (Plasmodium falciparum [5]) was 260 nM and the IC50 (Plasmodium falciparum [6]) was 490 nM.
`COc1ccc2[nH]cc(C(=O)c3nccc4c3[nH]c3ccc(OC)cc34)c2c1` gave an IC50 (Plasmodium falciparum [2]) of 1000 nM.
For `C/C=C/C(=O)N1CCc2c(n(C(=O)OC(C)(C)C)c3ccccc23)C1CC(=O)OCC` (configuration not stated), the IC50 (Plasmodium falciparum [7]) was 15000 nM.
In the case of `CCOC(=O)c1cc2c([nH]c3ccccc32)c(-c2ccc(/N=C(/Nc3ccccc3)NC3CC3)cc2)n1`, the IC50 (Plasmodium falciparum [8]) is reported as 600 nM and the IC50 (Plasmodium falciparum [9]) is reported as 1000 nM.
With `CC(C)(C)CCNC(=O)C1Cc2c([nH]c3ccccc23)C(c2ccc(Cl)cc2)N1` (configuration not stated) the IC50 (Plasmodium falciparum [10]) was 10500 nM and the IC50 (Plasmodium falciparum [11]) was 7800 nM.
For `CC(C)(C)OC(=O)n1cc(CC2NCCc3c2[nH]c2ccccc32)c2ccccc21` (configuration not stated), the IC50 (Plasmodium falciparum [2]) was 8500 nM.
In the case of `C/C=C/C(=O)N1CCc2c([nH]c3ccccc23)C1CC(=O)OCC` (configuration not stated), the IC50 (Plasmodium falciparum [12]) is reported as 13800 nM.
Compound `CCOC(=O)c1cc2c([nH]c3ccccc32)c(-c2ccc(N)cc2)n1` has an IC50 (Plasmodium falciparum [8]) of 39000 nM and an IC50 (Plasmodium falciparum [9]) of 37700 nM.
For `CCOC(=O)c1cc2c([nH]c3ccccc32)c(-c2ccc(NC(=S)Nc3ccccc3)cc2)n1`, the IC50 (Plasmodium falciparum [8]) was 640 nM and the IC50 (Plasmodium falciparum [9]) was 6400 nM.
Work on `C=C(C)CC1OC(C)=Cn2c3ccccc3c3cc(C(=O)OC)nc1c32` (configuration not stated) yielded an IC50 (Plasmodium falciparum [13]) of over 5000 nM.
`C=CCC1OC(C)=Cn2c3ccccc3c3cc(C(=O)OC)nc1c32` (configuration not stated) showed an IC50 (Plasmodium falciparum [14]) of over 5000 nM and an IC50 (Plasmodium falciparum [13]) of over 5000 nM.
Work on `CCN(CC)CCCC(C)Nc1nccc2c1[nH]c1ccc(F)cc12` (configuration not stated) yielded an IC50 (Plasmodium falciparum [3]) of 370 nM and an IC50 (Plasmodium falciparum [4]) of 1200 nM.
For `COC(=O)c1cc2c3cc(Br)ccc3n3c2c(n1)COC(C)=C3`, the IC50 (Plasmodium falciparum [13]) was over 5000 nM.
Compound `C=C(CC1OC(C)=Cn2c3ccccc3c3cc(C(=O)OC)nc1c32)C(=O)OC` (configuration not stated) has an IC50 (Plasmodium falciparum [14]) of 720 nM and an IC50 (Plasmodium falciparum [13]) of 570 nM.
For `Cc1nccc2c1[nH]c1cc(OCCNC(=O)/C=C/c3cccc(Br)c3)ccc12`, the IC50 (Plasmodium falciparum [5]) was 370 nM and the IC50 (Plasmodium falciparum [6]) was 480 nM.
`CON(C)C(=O)CC1c2c(c3ccccc3n2C(=O)OC(C)(C)C)CCN1C(=O)OCc1ccccc1` (configuration not stated) gave an IC50 (Plasmodium falciparum [7]) of 13800 nM.
For `COc1ccc2c3ccnc(C)c3n(CCNC(=O)/C=C/c3ccc(F)cc3)c2c1`, the IC50 (Plasmodium falciparum [5]) was 90 nM and the IC50 (Plasmodium falciparum [6]) was 330 nM.
Compound `COC(=O)c1cc2c3ccccc3n3c2c(n1)C(C1C=CCCC1)OC(C)=C3` (configuration not stated) has an IC50 (Plasmodium falciparum [14]) of over 5000 nM and an IC50 (Plasmodium falciparum [13]) of 1640 nM.
`COC(=O)c1cc2c3ccccc3n3c2c(n1)C(CC=C(C)C)OC(C)=C3` (configuration not stated) gave an IC50 (Plasmodium falciparum [14]) of over 5000 nM and an IC50 (Plasmodium falciparum [13]) of over 5000 nM.
Compound `COc1ccc2c3ccnc(C)c3n(CCNC(=O)/C=C/c3cccc(F)c3)c2c1` has an IC50 (Plasmodium falciparum [5]) of 70 nM and an IC50 (Plasmodium falciparum [6]) of 780 nM.
Work on `COc1ccc2c3ccnc(C)c3n(CCNC(=O)/C=C/c3cccc(Br)c3)c2c1` yielded an IC50 (Plasmodium falciparum [5]) of 70 nM and an IC50 (Plasmodium falciparum [6]) of 410 nM.
In the case of `COC(=O)c1cc2c3cc(Cl)ccc3n3c2c(n1)C(C/C=C(\C)CCC=C(C)C)OC(C)=C3` (configuration not stated), the IC50 (Plasmodium falciparum [14]) is reported as over 5000 nM and the IC50 (Plasmodium falciparum [13]) is reported as 1550 nM.
`COc1ccc(/C=C/C(=O)NCCOc2ccc3c(c2)[nH]c2c(C)nccc23)cc1` gave an IC50 (Plasmodium falciparum [5]) of 210 nM and an IC50 (Plasmodium falciparum [6]) of 1090 nM.
For `Cc1nccc2c1[nH]c1cc(OCCNC(=O)/C=C/c3cccc(F)c3)ccc12`, the IC50 (Plasmodium falciparum [5]) was 2750 nM and the IC50 (Plasmodium falciparum [6]) was 5010 nM.
`CC1NC(C(=O)N2CCCCC2)Cc2c1[nH]c1ccccc21` (configuration not stated) showed an IC50 (Plasmodium falciparum [10]) of 13200 nM and an IC50 (Plasmodium falciparum [11]) of 9600 nM.
With `CCCCCCCC[C@@H]1N[C@@H](C(=O)NCCC(C)(C)C)Cc2c1[nH]c1ccccc21` the IC50 (Plasmodium falciparum [10]) was 4450 nM and the IC50 (Plasmodium falciparum [11]) was 4000 nM.
